Biological target: T1, human DGAT1 (Homo sapiens, UniProt O75907)
T1 construct: made in house; host or cells: Sf9 insect cells (microsomes)
T1 sequence (O75907 1-488): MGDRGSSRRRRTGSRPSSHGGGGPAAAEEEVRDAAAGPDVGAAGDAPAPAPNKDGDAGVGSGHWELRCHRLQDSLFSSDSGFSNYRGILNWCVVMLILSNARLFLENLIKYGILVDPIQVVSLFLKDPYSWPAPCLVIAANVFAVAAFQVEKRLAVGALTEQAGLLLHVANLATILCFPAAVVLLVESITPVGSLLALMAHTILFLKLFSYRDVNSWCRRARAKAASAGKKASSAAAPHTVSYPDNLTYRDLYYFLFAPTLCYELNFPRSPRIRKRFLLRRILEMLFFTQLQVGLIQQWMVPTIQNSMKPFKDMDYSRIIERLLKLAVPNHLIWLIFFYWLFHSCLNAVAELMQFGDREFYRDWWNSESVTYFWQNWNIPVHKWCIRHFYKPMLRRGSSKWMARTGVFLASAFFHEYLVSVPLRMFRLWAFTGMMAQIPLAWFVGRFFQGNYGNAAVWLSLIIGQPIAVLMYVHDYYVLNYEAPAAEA
Assay: in vitro DGAT1 inhibition assay (microsomes, [14C]-palmitoyl-CoA, wheat germ agglutinin beads)
Type: biochemical
Conditions: human DGAT1 enzyme expressed in Sf9 insect cells, 2 hours at room temperature
Description: The assay used to determine the DGAT inhibitory activity of the inventive compounds is described below:
The in vitro assay to identify DGAT1 inhibitors uses human DGAT1 enzyme expressed in Sf9 insect cells prepared as microsomes. The reaction was initiated by the addition of the combined substrates 1,2-dioleoyl-sn-glycerol and [^14C]-palmitoyl-CoA and incubated with test compounds and microsomal membranes for 2 hours at room temperature. The assay was stopped by adding 0.5 mg wheat germ agglutinin beads in assay buffer with 1% Brij-35 and 1% 3-cholamidopropyldimethyl-ammonio-1-propane sulfonate. Plates were sealed with TopSeal and incubated for 18 hours to allow the radioactive triglyceride product to come into proximity with the bead. Plates were read on a TopCount instrument.
Percent inhibition was calculated as the percent of (test compound inhibition minus non-specific binding) relative to (total binding minus non-specific binding). IC50 values were determined by curve fitting the data to a Sigmoidal dose-response in GraphPad Prism utilizing the following equation:
Y=A+(B−A)/(1+10̂((LogIC50−X))),
where A and B are the bottom and top of the curve (highest and lowest inhibition), respectively, and X is the logarithm of concentration.

| SMILES | IC50 |
| --- | --- |
| C[C@@H]1CN(C(=O)Nc2ccccc2)c2ccc(-c3ccc([C@H]4CC[C@H](CC(=O)O)CC4)cc3)cc2O1 [B-18 enantiomer A, 2-((1r,4r)-4-(4-(2-methyl-4-(phenylcarbamoyl)-3,4-dihydro-2H-benzo[b][1,4]oxazin-7-yl)phenyl)cyclohexyl)acetic acid] | 43 nM |
| Cc1cc(C(=O)NCCCCc2ccccc2)c2ccc(-c3ccc([C@H]4CC[C@H](CC(=O)O)CC4)cc3)cc2n1 [Example C-141, 2-((1r,4r)-4-(4-(2-methyl-4-(4-phenylbutylcarbamoyl)quinolin-7-yl)phenyl)cyclohexyl)acetic acid] | 15 nM |
| CCCc1ccccc1NC(=O)c1ccnc2cc(-c3ccc([C@H]4CC[C@H](CC(=O)O)CC4)cc3)ccc12 [Example C-129, 2-((1r,4r)-4-(4-(4-(2-propylphenylcarbamoyl)quinolin-7-yl)phenyl)cyclohexyl)acetic acid] | 94 nM |
| O=C(O)C[C@H]1CC[C@H](c2ccc(-c3ccc4c(c3)OCCN4C(=O)Nc3ccc(F)cc3C(F)(F)F)cc2)CC1 [Example C-6, 2-((1r,4r)-4-(4-(4-(4-fluoro-2-(trifluoromethyl)phenylcarbamoyl)-3,4-dihydro-2H-benzo[b][1,4]oxazin-7-yl)phenyl)cyclohexyl)acetic acid] | 20 nM |
| O=C(O)C[C@H]1CC[C@H](c2ccc(-c3ccc4c(C(=O)Nc5ccccc5)ccnc4c3)cc2)CC1 [Example B-48, 2-((1r,4r)-4-(4-(4-(phenylcarbamoyl)quinolin-7-yl)phenyl)cyclohexyl)acetic acid] | 83 nM |
| CC(C)c1ccccc1NC(=O)c1ccnc2cc(-c3ccc([C@H]4CC[C@H](CC(=O)O)CC4)cc3)ccc12 [Example C-125, 2-((1r,4r)-4-(4-(4-(2-isopropylphenylcarbamoyl)quinolin-7-yl)phenyl)cyclohexyl)acetic acid] | 72 nM |
| Cc1cc(C(=O)Nc2ccccc2)c2ccc(-c3ccc([C@H]4CC[C@H](CC(=O)O)CC4)cc3)cc2n1 [Example C-134, 2-((1r,4r)-4-(4-(2-methyl-4-(phenylcarbamoyl)quinolin-7-yl)phenyl)cyclohexyl)acetic acid] | 28 nM |
| CC1CN(C(=O)Nc2ccc(F)cc2C(F)(F)F)c2ccc(-c3ccc([C@H]4CC[C@H](CC(=O)O)CC4)cc3)cc2O1 (single isomer, unassigned) [C-78 enantiomer A, 2-((1r,4r)-4-(4-(4-(4-fluoro-2-(trifluoromethyl)phenylcarbamoyl)-2-methyl-3,4-dihydro-2H-benzo[b][1,4]oxazin-7-yl)phenyl)cyclohexyl)acetic acid] | 79 nM |
| Cc1cc(C(=O)NCCc2ccccc2)c2ccc(-c3ccc([C@H]4CC[C@H](CC(=O)O)CC4)cc3)cc2n1 [Example C-139, 2-((1r,4r)-4-(4-(2-methyl-4-(phenethylcarbamoyl)quinolin-7-yl)phenyl)cyclohexyl)acetic acid] | 61 nM |
| CCCCCCCNC(=O)N1CC(CC)Oc2cc(-c3ccc([C@H]4CC[C@H](CC(=O)O)CC4)cc3)ccc21 (stereo partly shown) [Example C-150, 2-((1r,4r)-4-(4-(2-ethyl-4-(heptylcarbamoyl)-3,4-dihydro-2H-benzo[b][1,4]oxazin-7-yl)phenyl)cyclohexyl)acetic acid] | 83 nM |
| CCCCCCCNC(=O)N1CC(C)Oc2cc(-c3ccc([C@H]4CC[C@H](CC(=O)O)CC4)cc3)ccc21 (stereo partly shown) [Example C-116, 2-((1r,4r)-4-(4-(4-(heptylcarbamoyl)-2-methyl-3,4-dihydro-2H-benzo[b][1,4]oxazin-7-yl)phenyl)cyclohexyl)acetic acid] | 71 nM |
| CCc1ccccc1NC(=O)N1C[C@@H](C)Oc2cc(-c3ccc([C@H]4CC[C@H](CC(=O)O)CC4)cc3)ccc21 [C-81 enantiomer A, 2-((1r,4r)-4-(4-(4-(2-ethylphenylcarbamoyl)-2-methyl-3,4-dihydro-2H-benzo[b][1,4]oxazin-7-yl)phenyl)cyclohexyl)acetic acid] | 58 nM |
| CCCCCCNC(=O)N1CC(C)Oc2cc(-c3ccc([C@H]4CC[C@H](CC(=O)O)CC4)cc3)ccc21 (stereo partly shown) [Example C-113, 2-((1r,4r)-4-(4-(4-(hexylcarbamoyl)-2-methyl-3,4-dihydro-2H-benzo[b][1,4]oxazin-7-yl)phenyl)cyclohexyl)acetic acid] | 82 nM |

From patent US20120022057A1, “BICYCLIC COMPOUNDS AS INHIBITORS OF DIACYGLYCEROL ACYLTRANSFERASE” (Schering Corporation, priority 2009, published 2012)
